Values joined by “and” are separate entries in the source; they are usually repeats but may differ in a detail not shown here. Equal entries are not always repeated. Where two headings read alike, the source gives them in different places. Marks after values point to notes of the source that are not given here.
What was measured:
[1] = tested on: Balb/c mice, 1 Gy gamma radiation + 5-Fluorouracil + tongue scratch; assay: Radiation-induced oral mucositis ARS model: survival, mucositis, blood neutrophils; type: in vivo, mouse; details: PLAG 250 mg/kg/day oral
Protocol: In order to further confirm the effect of PLAG on the acute radiation syndrome, an animal model of radiation-induced oral mucositis was prepared and tested as an acute radiation syndrome animal model with severer conditions than those in Example 1 above. First, Balb/c mice (8-week-old female) were purchased from Koatech (Republic of Korea) and maintained in a specific pathogen-free (SPF) environment to establish a radiation-induced oral mucositis model. In this example, first group of oral mucositis induced group (negative control) was compared to the second group where PLAG was orally administered to animals with induced oral mucositis.
Specifically, mice were exposed to 1 Gy whole body gamma radiation and scars of 0.2 cm on the mice tongue were scratched at 0, 7, 10 and 16 days with the same force and depth using an 18 gauge needle. On day 2 post-irradiation, 5-Fluorouracil (50 mg/kg/day) was intraperitoneally administered and PLAG was administered orally at 250 mg/kg/day for 18 days (Table 2).
Oral mucositis level was determined by counting the ulcer formation and edema of the tongue and the incidence of wound atrophy, and calculating the score of oral mucositis by a total of 5 blinded observers. On the 7th and 10th day, the blood of the experimental groups was collected and the number of neutrophils in the blood was measured by measuring the Complete Blood Count (CBC) using a Mindray BC-5300 auto hematology analyzer (Shenzhen Mindray Bio-medical Electronics, China).

[2] = tested on: Balb/c mice, 6.11 Gy gamma-radiation; assay: Radiation-induced pneumonitis mouse model: lung damage; type: in vivo; details: 50 or 250 mg/kg daily Day 0 to 3
Protocol: To examine the effect of EC-18 on the lung damage in pneumonitis, female Balb/c mice (n=3/group) were exposed to 6.11 Gy of gamma-radiation at Day 0. EC-18 at 50 or 250 mg/kg was administered daily from Day 0 to 3. To verify the vascular leakage of the lung due to radiation exposure, Evans blue staining was diluted with PBS and injected i.v. into mice 30 mins before sacrificing them on Day 3 (FIG. 56).
The further microscopical analysis was conducted by extracting the lung after sacrificing the mice. The perfused lung tissues were fixed in 10% buffered formalin for 24 hrs, embedded in paraffin, sectioned at 4 μm, and stained with hematoxylin and eosin (H&E) staining. […] In contrast, the infiltration of the RBCs into the lung tissues was not observed in both the EC-18-treated group.

[3] = tested on: CYP3A4; details: for Enzyme Activity CYP3A4: n=3
Protocol: This test was performed to determine if EC-18 was capable of inducing CYP1A2 and CYP3A4 activities in human primary hepatocytes.

[4] = target: T1, OAT1 (Homo sapiens, UniProt Q4U2R8); assay: Drug transporter inhibition, OAT1; type: in vitro ADME; details: 100 nM [3H] para-aminohippuric acid; transfected HEK-293 cells
T1 construct: expressed in transfected cells; host or cells: HEK-293
Protocol: This study examined the potential of EC-18 to interact with the transporter proteins that have been known to be involved in the absorption of commercially available drugs. EC-18 was pre-incubated with HEK-293 cells and LLC-PK1 cells that were transfected with the genes of most drug transporters as follows: OATP1B1, OATP1B3, OAT1, OAT3 and OCT2, and BCRP and P-gp, respectively.

[5] = tested on: ICR mouse; assay: Micronucleus assay; type: in vivo; details: Oral; Single; 0, 500, 1000, 2000 mg/kg
From the text: (§1) Various toxicology studies have been performed. All studies were GLP-compliant unless otherwise noted.

[6] = tested on: Guinea pig; assay: Antigenicity test; type: in vivo; details: Oral; 2 weeks; 500, 2000 mg/kg; 2000 mg/kg + FCA
From the text: as §1

[7] = target: hERG channel (Homo sapiens, UniProt Q12809); assay: In vitro hERG channel inhibition; details: for hERG channel current suppression rate (compensated suppression rate): HEK-293 cells
[8] = tested on: Balb/c mice, 6.11 Gy TBI; assay: Dose optimization / pharmacodynamics study in LD70/30 ARS model (40 mice per group)
[9] = 6.11 Gy, EC-18 50 mg/kg daily from day 1, 30 days
[10] = 6.11 Gy, EC-18 100 mg/kg daily from day 1, 30 days
[11] = 6.11 Gy, EC-18 250 mg/kg daily from day 1, 30 days
[12] = 6.11 Gy, EC-18 500 mg/kg daily from day 1, 30 days

Sequence of hERG channel (Q12809 whole entry): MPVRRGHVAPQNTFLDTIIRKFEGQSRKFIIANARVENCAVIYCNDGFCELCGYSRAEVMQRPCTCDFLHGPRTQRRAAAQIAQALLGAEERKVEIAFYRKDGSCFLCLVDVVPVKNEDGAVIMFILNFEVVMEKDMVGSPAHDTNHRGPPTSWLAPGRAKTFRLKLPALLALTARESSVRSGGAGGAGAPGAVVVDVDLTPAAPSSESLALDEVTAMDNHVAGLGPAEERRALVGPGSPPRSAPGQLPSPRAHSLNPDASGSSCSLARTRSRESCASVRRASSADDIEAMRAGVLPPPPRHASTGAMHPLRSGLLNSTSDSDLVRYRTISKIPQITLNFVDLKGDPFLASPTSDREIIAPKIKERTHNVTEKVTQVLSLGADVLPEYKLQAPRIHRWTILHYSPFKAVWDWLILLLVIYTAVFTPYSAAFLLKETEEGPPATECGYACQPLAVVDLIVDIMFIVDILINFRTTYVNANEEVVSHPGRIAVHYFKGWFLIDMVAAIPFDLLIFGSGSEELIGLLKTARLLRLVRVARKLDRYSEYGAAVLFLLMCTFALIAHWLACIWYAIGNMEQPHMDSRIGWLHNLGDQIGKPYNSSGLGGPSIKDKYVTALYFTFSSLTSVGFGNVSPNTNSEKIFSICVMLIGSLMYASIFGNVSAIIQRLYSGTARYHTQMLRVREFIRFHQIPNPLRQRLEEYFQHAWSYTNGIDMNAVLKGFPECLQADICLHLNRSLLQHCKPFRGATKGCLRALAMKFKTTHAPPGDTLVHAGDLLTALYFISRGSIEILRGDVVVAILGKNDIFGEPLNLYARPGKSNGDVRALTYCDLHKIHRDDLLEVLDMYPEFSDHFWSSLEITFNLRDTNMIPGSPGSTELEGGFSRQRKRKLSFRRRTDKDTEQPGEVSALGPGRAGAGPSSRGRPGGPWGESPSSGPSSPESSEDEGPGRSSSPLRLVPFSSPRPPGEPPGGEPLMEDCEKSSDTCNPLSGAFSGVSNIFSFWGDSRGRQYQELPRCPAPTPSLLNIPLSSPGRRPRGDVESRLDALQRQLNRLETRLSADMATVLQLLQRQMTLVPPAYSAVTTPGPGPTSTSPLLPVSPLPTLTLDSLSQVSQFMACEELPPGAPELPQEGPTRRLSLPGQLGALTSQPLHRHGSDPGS
T1 sequence (Q4U2R8 whole entry, species assumed): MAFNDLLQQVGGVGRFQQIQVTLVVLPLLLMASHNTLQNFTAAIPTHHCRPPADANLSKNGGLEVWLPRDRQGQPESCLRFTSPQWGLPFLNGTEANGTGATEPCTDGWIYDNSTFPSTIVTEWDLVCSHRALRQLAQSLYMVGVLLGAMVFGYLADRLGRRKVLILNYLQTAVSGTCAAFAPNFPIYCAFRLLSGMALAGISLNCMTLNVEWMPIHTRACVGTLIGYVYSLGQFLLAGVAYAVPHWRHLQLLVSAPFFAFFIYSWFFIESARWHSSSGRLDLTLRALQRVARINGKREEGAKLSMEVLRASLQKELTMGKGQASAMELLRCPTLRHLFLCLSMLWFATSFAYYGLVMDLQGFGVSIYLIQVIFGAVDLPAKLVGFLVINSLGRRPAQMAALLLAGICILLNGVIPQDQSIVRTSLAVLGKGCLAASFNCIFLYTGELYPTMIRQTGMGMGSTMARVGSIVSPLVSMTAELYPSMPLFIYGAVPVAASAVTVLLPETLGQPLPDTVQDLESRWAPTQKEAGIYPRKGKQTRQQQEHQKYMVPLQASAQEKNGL

## CCCCC/C=C\C/C=C\CCCCCCCC(=O)OC(COC(C)=O)COC(=O)CCCCCCCCCCCCCCC (centres unmarked) [EC-18, 1-palmitoyl-2-linoleoyl-3-acetylglycerol]
[1]
  oral mucositis score: significantly decreased
  visually confirmed oral mucositis levels vs non-PLAG-treated group: significantly reduced
[1]; days 7 and 10
  neutrophil number in blood: significantly increased
[1]; day 18, n=7
  survival rate: 85%
[2]
  infiltration of RBCs into the lung tissues (H&E): not observed
  vascular leakage of the lung (Evans blue): mitigated the vascular leakage
[3]; 1 μM
  Enzyme Activity CYP3A4: 3.44 ± 0.73 pmol/106 Cells/Min
[3]; 10 μM
  Enzyme Activity CYP3A4: 3.11 ± 0.25 pmol/106 Cells/Min
[3]; 100 μM
  Enzyme Activity CYP3A4: 3.61 ± 0.28 pmol/106 Cells/Min
[3]; up to 100 μM
  potential to induce CYP3A4: no potential to induce
[4]
  IC50: > 32 µM
[5]
  micronucleus induction in mouse bone marrow cells: EC-18 does not affect
[6]
  anaphylaxis reaction / antigenicity: No anaphylaxis reaction
[7]; 125 μM
  hERG channel current suppression rate (compensated suppression rate): 1.39%
[7]; 250 μM
  hERG channel current suppression rate (compensated suppression rate): 2.97%
[7]; 500 μM
  hERG channel current suppression rate (compensated suppression rate): 2.54%
[7]; 1000 μM
  hERG channel current suppression rate (compensated suppression rate): 2.90%
[7]; concentrations up to 1000 μM
  hERG channel current inhibition: did not inhibit the hERG channel current
[8]; 25 mg/kg (so in the source)
  improvement in survival vs control group: 2 fold
[8]; 250 mg/kg daily, 24-hr delayed
  improvement in survival vs control group: 4 fold
[8]; 250 mg/kg, 30 days of observation
  γ-radiation-induced reduction of RBC and hemoglobin: significantly prevented
[8]; 250 mg/kg, from 15 days to the last day of observation
  mean PLT count vs control cohort: higher
[8]; 500 mg/kg daily, 24-hr delayed
  improvement in survival vs control group: ~4 fold
[8]; 6.11 Gy, EC-18 50 mg/kg
  Survival time of decedents, Median: 25.5 days
[8]; [9]
  No. of mice that survived/total: 24/40
  Survivability / Survival: 60%
[8]; 6.11 Gy, EC-18 50 mg/kg, 50 mg/kg
  Survival time of decedents, Mean ± SEM: 24.3 days and 24.3 ± 1.2 days
[8]; 6.11 Gy, EC-18 100 mg/kg
  Survival time of decedents, Mean ± SEM: 22.8 ± 1.7 days
  Survival time of decedents, Median: 26.0 days
[8]; [10]
  No. of mice that survived/total: 27/40
  Survival: 67.5%
[8]; 6.11 Gy, EC-18 250 mg/kg
  Survival time of decedents, Median: 27.5 days
[8]; [11]
  No. of mice that survived/total: 34/40
  Survivability / Survival: 85%
[8]; 6.11 Gy, EC-18 250 mg/kg, 250 mg/kg
  Survival time of decedents, Mean ± SEM: 27.8 days and 27.8 ± 0.4 days
[8]; 6.11 Gy, EC-18 500 mg/kg
  Survival time of decedents, Median: 19.5 days
[8]; [12]
  No. of mice that survived/total: 34/40
  Survivability / Survival: 85%
[8]; 6.11 Gy, EC-18 500 mg/kg, 500 mg/kg
  Survival time of decedents, Mean ± SEM: 20.3 days and 20.3 ± 1.5 days
[8]; 50 and 250 mg/kg, dose-dependent
  radiation-induced depletion of ANC (and WBC): significantly attenuated
[8]; EC-18 50 mg/kg
  Mean of the First Day Of Anemia (HGB <12 g/dL) (±SE): 10.4 ± 0.7 (5-15)
  Mean of the First Day of Neutropenia (ANC <500 cells/μL) (±SE): 3.0 ± 0.0 (3-3)
  Mean of the First Day of Thrombocytopenia (PLT <100 × 10^3 cells/μL) (±SE): 10.0 ± 0.0 (10-10)
[8]; EC-18 50 mg/kg, 50 mg/kg
  Mean of the First Day of SN (ANC <100 cells/μL) (±SE): 5.7 ± 0.6 (3-10) days
[8]; EC-18 50 mg/kg, n=17
  Mean Duration of Anemia in Days (±SE): 15.0 ± 0.8^b (7-19) Days
[8]; EC-18 50 mg/kg, n=19
  Mean Duration of Neutropenia in Days (±SE): 21.0 ± 0.7^b (17-24) Days
  Mean Duration of SN in Days (±SE): 11.4 ± 0.9^b (5-19) Days
  Mean Duration of Thrombocytopenia in Days (±SE): 12.8 ± 0.8^b (7-17) Days
[8]; EC-18 100 mg/kg
  Mean of the First Day Of Anemia (HGB <12 g/dL) (±SE): 11.0 ± 0.5 (5-15)
  Mean of the First Day of Neutropenia (ANC <500 cells/μL) (±SE): 3.0 ± 0.0 (3-3)
  Mean of the First Day of Thrombocytopenia (PLT <100 × 10^3 cells/μL) (±SE): 10.0 ± 0.0 (10-10)
[8]; EC-18 100 mg/kg, 100 mg/kg
  Mean of the First Day of SN (ANC <100 cells/μL) (±SE): 5.1 ± 0.5 (3-10) days
[8]; EC-18 100 mg/kg, n=17
  Mean Duration of Anemia in Days (±SE): 15.5 ± 0.5^c (12-20) Days
[8]; EC-18 100 mg/kg, n=18
  Mean Duration of Neutropenia in Days (±SE): 23.9 ± 0.5^c (19-27) Days
  Mean Duration of SN in Days (±SE): 13.4 ± 1.3^c (7-25) Days
  Mean Duration of Thrombocytopenia in Days (±SE): 14.7 ± 1.0^c (5-20) Days
[8]; EC-18 250 mg/kg
  Mean of the First Day Of Anemia (HGB <12 g/dL) (±SE): 12.1 ± 0.5 (10-15)
  Mean of the First Day of Neutropenia (ANC <500 cells/μL) (±SE): 3.2 ± 0.1 (3-5)
  Mean of the First Day of Thrombocytopenia (PLT <100 × 10^3 cells/μL) (±SE): 10.1 ± 0.1 (10-12)
[8]; EC-18 250 mg/kg, 250 mg/kg
  Mean of the First Day of SN (ANC <100 cells/μL) (±SE): 8.5 ± 1.0 (3-17) days
[8]; EC-18 250 mg/kg, n=19
  Mean Duration of Anemia in Days (±SE): 9.7 ± 0.7^d (5-17) Days
[8]; EC-18 250 mg/kg, n=20
  Mean Duration of Neutropenia in Days (±SE): 21.2 ± 0.7^d (17-27) Days
  Mean Duration of SN in Days (±SE): 7.2 ± 0.7^d (2-12) Days
  Mean Duration of Thrombocytopenia in Days (±SE): 6.7 ± 0.5^d (3-12) Days
[8]; EC-18 500 mg/kg
  Mean of the First Day Of Anemia (HGB <12 g/dL) (±SE): 12.2 ± 0.5 (7-15)
  Mean of the First Day of Neutropenia (ANC <500 cells/μL) (±SE): 3.4 ± 0.2 (3-5)
  Mean of the First Day of Thrombocytopenia (PLT <100 × 10^3 cells/μL) (±SE): 10.1 ± 0.1 (10-12)
[8]; EC-18 500 mg/kg, 500 mg/kg
  Mean of the First Day of SN (ANC <100 cells/μL) (±SE): 7.0 ± 0.9 (3-20) days
[8]; EC-18 500 mg/kg, n=19
  Mean Duration of Anemia in Days (±SE): 14.0 ± 0.8^e (7-20) Days
  Mean Duration of Neutropenia in Days (±SE): 21.9 ± 0.6^e (17-27) Days
  Mean Duration of SN in Days (±SE): 9.6 ± 0.6^e (2-14) Days
  Mean Duration of Thrombocytopenia in Days (±SE): 12.3 ± 0.7^e (7-20) Days
[8]; mouse, in vivo
  severity of the nadir: diminished
  timing of nadirs for neutrophils, PLTs, red blood cells, hemoglobin: unchanged

Reference: patent publication US12076307B2, “Compositions for prevention or treatment of acute radiation syndrome and other radiation exposure” (priority 2017, dated 2024)
